Experimental data published in patent US8445674B2, “Heterocyclyl compounds” (Hoffmann-La Roche Inc, priority 2009, dated 2013).

biological target: T1, human chemokine receptor 2 isoform B (Homo sapiens, UniProt P41597); assay: Calcium mobilization assay (FLIPR, antagonist activity against MCP-1); format: cell-based; conditions: Ca mobilisation assay, CHOK1-CCR2B-A5 cells, inhibition of calcium increase induced by 20 nM MCP-1
T1 construct: host or cells: CHOK1-CCR2B-A5 cells (CHO-K1)
T1 sequence (P41597 1-360 isoform P41597-2): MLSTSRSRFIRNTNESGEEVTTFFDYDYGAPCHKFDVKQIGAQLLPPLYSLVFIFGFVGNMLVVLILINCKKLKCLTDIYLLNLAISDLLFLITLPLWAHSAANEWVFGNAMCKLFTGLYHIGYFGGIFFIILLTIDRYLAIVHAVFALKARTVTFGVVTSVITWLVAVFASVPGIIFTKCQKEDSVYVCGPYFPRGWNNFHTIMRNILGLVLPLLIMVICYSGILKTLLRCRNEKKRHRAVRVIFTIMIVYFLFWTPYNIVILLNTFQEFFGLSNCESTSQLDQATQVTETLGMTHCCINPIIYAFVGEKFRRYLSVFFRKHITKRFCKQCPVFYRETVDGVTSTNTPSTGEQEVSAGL
Procedure, shortened: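 CHOK1 cells stably overexpressing human CCR2B, loaded with 4 μM Fluo-4 for 2 h at 30° C, compounds added and agonist signal read by FLIPR for 80 s. After 20-30 min at 30° C, 20 nM MCP-1 was added and fluorescence read again. IC50 is 50% inhibition of specific calcium increase (max minus basal).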

Which IC50 does the source give for `C[C@H]1C(=O)N(CCC(F)C(=O)N2CCC3(CC3)[C@H](O)C2)CCN1C(=O)Nc1ccc(C(F)(F)F)c(Cl)c1` (stereo partly drawn) [Example 136, (S)-4-[(R,S)-3-Fluoro-4-((S)-4-hydroxy-6-aza-spiro[2.5]oct-6-yl)-4-oxo-butyl]-2-methyl-3-oxo-piperazine-1-carboxylic acid (3-chloro-4-trifluoromethyl-phenyl)-amide] here?
Its IC50 is 4.7 nM.

`COC(=O)[C@H](CCC(=O)N1CCC2(CC2)[C@H](O)C1)N1CCN(C(=O)Nc2ccc(C(F)(F)F)c(Cl)c2)[C@@H](C)C1=O` [Example 52, (S)-2-[(S)-4-(3-Chloro-4-trifluoromethyl-phenylcarbamoyl)-3-methyl-2-oxo-piperazin-1-yl]-5-((S)-4-hydroxy-6-aza-spiro[2.5]oct-6-yl)-5-oxo-pentanoic acid methyl ester] was tested. Which IC50 did it give?
Its IC50 is 738 nM.

`O=C1CCN(C(=O)Nc2cccc(Cl)c2)CCN1CCCC(=O)N1CCC2(CC2)[C@H](O)C1` [Example 116, 4-[4-((S)-4-Hydroxy-6-aza-spiro[2.5]oct-6-yl)-4-oxo-butyl]-5-oxo-[1,4]diazepane-1-carboxylic acid (3-chloro-phenyl)-amide] was tested. Which IC50 did it give?
Its IC50 is 1290 nM.

`C[C@H]1C(=O)N(CCCC(=O)N2CCC3(CC3)[C@H](O)C2)C(C(=O)O)CN1C(=O)Nc1ccc(Cl)c(Cl)c1` (mixture of isomers) [Example 120, (2RS,5S)-4-(3,4-Dichloro-phenylcarbamoyl)-1-[4-((S)-4-hydroxy-6-aza-spiro[2.5]oct-6-yl)-4-oxo-butyl]-5-methyl-6-oxo-piperazine-2-carboxylic acid] was tested. Which IC50 did it give?
Its IC50 is 386 nM.

With `C[C@H]1C[C@H](O)CN(C(=O)CCCN2CCN(C(=O)Nc3cccc(Cl)c3)[C@@H](C)C2=O)C1` [Example 113, (S)-4-[4-((3S,5S)-3-Hydroxy-5-methyl-piperidin-1-yl)-4-oxo-butyl]-2-methyl-3-oxo-piperazine-1-carboxylic acid (3-chloro-phenyl)-amide] as the compound, how does the IC50 read?
The IC50 was 1420 nM.

Which IC50 does the source give for `C[C@H]1C(=O)N(CCCC(=O)N2CCC3(CC3)[C@H](O)C2)[C@@H](C(N)=O)CN1C(=O)Nc1ccc(C(F)(F)F)c(Cl)c1` [Example 148, (3R,6S)—N1-(3-chloro-4-(trifluoromethyl)phenyl)-4-(4-((S)-4-hydroxy-6-azaspiro[2.5]octan-6-yl)-4-oxobutyl)-6-methyl-5-oxopiperazine-1,3-dicarboxamide] here?
Its IC50 is 30.5 nM.

Which IC50 does the source give for `C[C@H]1C(=O)N(CCC(=O)N2CCC3(CC3)[C@H](O)C2)CCN1C(=O)/C=C/c1ccc(F)c(Cl)c1` [Example 64, (S)-4-[(E)-3-(3-Chloro-4-fluoro-phenyl)-acryloyl]-1-[3-((S)-4-hydroxy-6-aza-spiro[2.5]oct-6-yl)-3-oxo-propyl]-3-methyl-piperazin-2-one] here?
Its IC50 is 1240 nM.

For `C[C@H]1C(=O)N(CCCC(=O)N2CCC3(CC3)[C@H](O)C2)CCN1c1ccc(Cl)c(Cl)c1` [Example 59, (S)-4-(3,4-dichloro-phenyl)-1-[4-((S)-4-hydroxy-6-aza-spiro[2.5]oct-6-yl)-4-oxo-butyl]-3-methyl-piperazin-2-one], which IC50 is on record?
Its IC50 is 23.2 nM.

Which IC50 does the source give for `C[C@H]1C(=O)N(CCC(O)C(=O)N2CCC3(CC3)[C@H](O)C2)CCN1C(=O)Nc1ccc(C(F)(F)F)c(C(F)(F)F)c1` (stereo partly drawn) [Example 135, (S)-4-[(R,S)-3-Hydroxy-4-((S)-4-hydroxy-6-aza-spiro[2.5]oct-6-yl)-4-oxo-butyl]-2-methyl-3-oxo-piperazine-1-carboxylic acid (3,4-bis-trifluoromethyl-phenyl)-amide] here?
The IC50 was 62.2 nM.

Which IC50 does the source give for `C[C@H]1C[C@H](O)CN(C(=O)CCN2C[C@@H](C)N(C(=O)/C=C/c3cccc(Cl)c3)CCC2=O)C1` [Example 103, (R)-1-[(E)-3-(3-Chloro-phenyl)-acryloyl]-4-[3-((3S,5S)-3-hydroxy-5-methyl-piperidin-1-yl)-3-oxo-propyl]-2-methyl-[1,4]diazepan-5-one] here?
The IC50 was 1290 nM.

`C[C@H]1CCN(C(=O)CCN2CCN(C(=O)Nc3ccc(Cl)c(Cl)c3)[C@@H](C)C2=O)C[C@H]1O` [Example 20, (S)-4-[3-((3S,4S)-3-Hydroxy-4-methyl-piperidin-1-yl)-3-oxo-propyl]-2-methyl-3-oxo-piperazine-1-carboxylic acid (3,4-dichloro-phenyl)-amide] was tested. Which IC50 did it give?
Its IC50 is 1080 nM.

How did the IC50 turn out when `O=C(/C=C/c1cccc(Cl)c1)N1CCC(=O)N(C(CO)CC(=O)N2CCC3(CC3)[C@H](O)C2)CC1` (stereo partly drawn) [Example 11, 1-[(E)-3-(3-Chloro-phenyl)-acryloyl]-4-[(R,S)-3-((S)-4-hydroxy-6-aza-spiro[2.5]oct-6-yl)-1-hydroxymethyl-3-oxo-propyl]-[1,4]diazepan-5-one] was run?
Its IC50 is 464 nM.

Which IC50 does the source give for `O=C1CCN(C(=O)Nc2ccc(C(F)(F)F)c(Cl)c2)CCN1CCCC(=O)N1CCC2(CC2)[C@H](O)C1` [Example 119, 4-[4-((S)-4-Hydroxy-6-aza-spiro[2.5]oct-6-yl)-4-oxo-butyl]-5-oxo-[1,4] diazepane-1-carboxylic acid (3-chloro-4-trifluoromethyl-phenyl)-amide] here?
Its IC50 is 17.6 nM.

How did the IC50 turn out when `C[C@H]1C(=O)N(CCCC(=O)N2CCC3(CC3)[C@H](O)C2)CCN1c1ccc(C(F)(F)F)c(C(F)(F)F)c1` [Example 130, (S)-4-(3,4-Bis-trifluoromethyl-phenyl)-1-[4-((S)-4-hydroxy-6-aza-spiro[2.5]oct-6-yl)-4-oxo-butyl]-3-methyl-piperazin-2-one] was run?
Its IC50 is 36.8 nM.

`C[C@H]1C(=O)N(C[C@@H](O)CC(=O)N2CCC3(CC3)[C@H](O)C2)CCN1C(=O)Nc1ccc(OC(F)(F)F)c(Cl)c1` [Example 45, (S)-4-[(S)-2-hydroxy-4-((S)-4-hydroxy-6-aza-spiro[2.5]oct-6-yl)-4-oxo-butyl]-2-methyl-3-oxo-piperazine-1-carboxylic acid (3-chloro-4-trifluoromethoxy-phenyl)-amide] was tested. Which IC50 did it give?
The IC50 was 2 nM.

For `C[C@H]1C(=O)N([C@@H](CCC(=O)N2CCC3(CC3)[C@H](O)C2)C(=O)O)CCN1C(=O)Nc1ccc(C(F)(F)F)c(Cl)c1` [Example 140, (S)-2-[(S)-4-(3-Chloro-4-trifluoromethyl-phenylcarbamoyl)-3-methyl-2-oxo-piperazin-1-yl]-5-((S)-4-hydroxy-6-aza-spiro[2.5]oct-6-yl)-5-oxo-pentanoic acid], which IC50 is on record?
Its IC50 is 751 nM.

With `CC1(O)CCCN(C(=O)CN2CCN(C(=O)/C=C/c3ccc(Cl)c(Cl)c3)CCC2=O)C1` (racemic) [Example 100, (rac)-1-[(E)-3-(3,4-Dichloro-phenyl)-acryloyl]-4-[2-(3-hydroxy-3-methyl-piperidin-1-yl)-2-oxo-ethyl]-[1,4]diazepan-5-one] as the compound, how does the IC50 read?
Its IC50 is 411 nM.

`O=C(/C=C/c1ccc(Cl)c(Cl)c1)N1CCC(=O)N(CCC(=O)N2CCCCC2)CC1` [Example 82, 1-[(E)-3-(3,4-Dichloro-phenyl)-acryloyl]-4-(3-oxo-3-piperidin-l-yl-propyl)-[1,4]diazepan-5-one] was tested. Which IC50 did it give?
Its IC50 is 1830 nM.

For `C[C@H]1C(=O)N(CC(O)CC(=O)N2CCC3(CC3)[C@H](O)C2)CCN1C(=O)Nc1ccc(C(F)(F)F)c(Cl)c1` (stereo partly drawn) [Example 41, (S)-4-[(R,S)-2-Hydroxy-4-((S)-4-hydroxy-6-aza-spiro[2.5]oct-6-yl)-4-oxo-butyl]-2-methyl-3-oxo-piperazine-1-carboxylic acid (3-chloro-4-trifluoromethyl-phenyl)-amide], which IC50 is on record?
The IC50 was 5.6 nM.
